Starred links: 1 amine or outer side, 2 acyl side, 3 side chain; linkers in the order of their positions; H or OH if unused. Positions of bridges follow the written chain, without caps; N, C: chain ends. Non-standard residues stand in square brackets, D forms with d. Residues, ends and D or L forms follow the SMILES beside them. *: point of attachment. Phe(3-(CH2)7CO) = O=C([C@H](Cc1cccc(CCCCCCCC(=O)[*:3])c1)N[*:1])[*:2]; X1 = CCCC(N[*:1])C(=O)C(=O)[*:2]; Chg = N[C@H](C(=O)O)C1CCCCC1; Phg = N[C@H](C(=O)O)c1ccccc1; OtBu = CC(C)(C)O*
Target: NS3 (Hepatitis C virus, UniProt A3EZJ3)
Sequence (A3EZJ3 whole entry): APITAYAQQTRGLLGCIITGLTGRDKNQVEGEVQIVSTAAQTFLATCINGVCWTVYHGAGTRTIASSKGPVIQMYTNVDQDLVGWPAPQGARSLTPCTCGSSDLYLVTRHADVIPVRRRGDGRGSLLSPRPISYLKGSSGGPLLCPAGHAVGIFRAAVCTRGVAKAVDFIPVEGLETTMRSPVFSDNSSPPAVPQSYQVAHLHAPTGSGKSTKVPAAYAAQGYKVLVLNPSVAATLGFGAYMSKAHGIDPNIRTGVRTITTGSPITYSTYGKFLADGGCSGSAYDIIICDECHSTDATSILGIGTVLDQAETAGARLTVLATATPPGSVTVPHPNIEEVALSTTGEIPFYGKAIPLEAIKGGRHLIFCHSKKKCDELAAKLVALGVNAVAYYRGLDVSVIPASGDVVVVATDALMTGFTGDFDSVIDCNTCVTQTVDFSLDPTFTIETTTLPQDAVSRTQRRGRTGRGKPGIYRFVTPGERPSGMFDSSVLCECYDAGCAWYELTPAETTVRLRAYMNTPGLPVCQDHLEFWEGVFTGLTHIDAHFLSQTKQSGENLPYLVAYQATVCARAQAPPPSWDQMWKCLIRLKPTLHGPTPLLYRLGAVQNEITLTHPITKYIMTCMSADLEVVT
Assay: Inhibitory constant against NS3 serine protease of hepatitis c virus
Parameters: species or system Hepacivirus hominis

Row | SMILES | Ki [nM]
1 | CCCC(NC(=O)[C@@H]1Cc2cccc(c2)/C=C/CCCCCC(=O)N[C@@H](C2CCCCC2)C(=O)N1)C(=O)C(=O)NCC(=O)N[C@H](C(=O)O)c1ccccc1 (stereo not given in full) | 84
2 | CCCC(NC(=O)[C@@H]1Cc2cccc(c2)/C=C/CCCCCC(=O)N[C@@H](C2CCCCC2)C(=O)N1)C(=O)C(=O)NCC(=O)N[C@H](C(=O)N(C)C)c1ccccc1 (stereo not given in full) | 120
3 | CCCC(NC(=O)[C@@H]1Cc2cccc(c2)/C=C/CCCCCC(=O)N[C@@H](C2CCCCC2)C(=O)N1)C(=O)C(=O)NCC(=O)N[C@H](C(=O)OC(C)(C)C)c1ccccc1 (stereo not given in full) | 1200
4 | CCCC(NC(=O)[C@@H]1Cc2cccc(c2)CCCCCCCC(=O)N[C@@H](C2CCCCC2)C(=O)N1)C(=O)C(=O)NCC(=O)N[C@H](C(=O)N(C)C)c1ccccc1 (stereo not given in full) ([Chg][Phe(3-(CH2)7CO)][X1]G[Phg]-NMe2; lactam N-2) | 110
5 | CCCC(NC(=O)[C@@H]1Cc2cccc(c2)CCCCCCCC(=O)N[C@@H](C2CCCCC2)C(=O)N1)C(=O)C(=O)NCC(=O)N[C@H](C(=O)OC(C)(C)C)c1ccccc1 (stereo not given in full) ([Chg][Phe(3-(CH2)7CO)][X1]G[Phg]-OtBu; lactam N-2) | 2300
